Laboratory results as given in patent US20060121449A1, “Method for selection of compounds which inhibit clonal cell growth and use thereof” (priority 2002, published 2006).
Entries after “also recorded” stand apart in the source; their conditions may differ.

Columns and labels:
Ehrlich ascites tumour = settings: Exp 18
Protocol: Tumour cells harvested from ascitic mouse were mainly solitary.
The experiment describes transplantation of the malignant mouse Ehrlich ascites tumour to two adult male mice (NMRI/Bom). Each of them received 100000 cells intraperitonally. One mouse was treated two times a week with 4-OH-OPB intraperitonally.
Cells were injected 90 minutes after the addition of 4-OH-OPB to the suspension. The control received the same cell suspension without 4-OH-OPB.
At the same time, dilutions of 4-OH-OPB were injected intraperitonally to the transplanted mice in order to find the smallest active dose.
The cells from ascites in the untreated control mouse was frozen on serum with 10% DMSO. The cells were thawed in water of 37° C., diluted in serum, and pelleted by low speed centrifugation after the addition of 2 ml FBS, to remove DMSO.
Each animal received such cells suspended in portions of 1 ml in RPMI (pH˜6.9).
The frozen and thawed Ehrlich ascites cells are diluted in a volume of 1 ml RPMI (pH˜6.9) for each animal. No calf serum was added to the medium to avoid immunisation of the mice.
Cell number: 90000 tumour cells in 0.7 ml RPMI were injected intraperitonally to each animal.
The total cell number in the ampoule was 7.5 million cells. The cells were thawed, and 2 ml FBS was added before low speed centrifugation. […] Than separate vessels were prepared for each animal. The cell tube for animal number 3 received Colchicine as indicated in the table on day 0 one hour before the cells were injected.
After mixing the same volume was transferred from this tube to the last tube.
The content of the last two tubes was injected intraperitonally to each of the mice number 1 and 2 respectively.

[1] = test system: polyoma virus transformed BHK21/c13 cells, clone S100T1; assay: Clonal test: clonal growth of S100T1 cells in soft agar (Exp 2, 4, 6, 15, 16); type: cell-based, hamster
[2] = test system: polyoma virus transformed BHK21/c13 cells, line S100T1; assay: Collocation inhibition test: clonal growth in sparsely and densely seeded areas of a cell density gradient of S100T1 cells in soft agar (Exp 13, 17, 19-26); settings: for Significance: Exp 17 day 14;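 for Clonal growth, H high density area of cell gradient, High: grades rise with clonal growth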;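 for Clonal growth, H high density area of cell gradient, Low: grades rise with clonal growth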;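 for Clonal growth, H high density area of cell gradient, Medium: grades rise with clonal growth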;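 for Clonal growth, L low density area of cell gradient, High: grades rise with clonal growth and minus or plus-minus means none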;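 for Clonal growth, L low density area of cell gradient, Low: grades rise with clonal growth and minus or plus-minus means none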;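 for Clonal growth, L low density area of cell gradient, Medium: grades rise with clonal growth and minus or plus-minus means none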;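 for all read-outs here: soft agar cultures in 24-well plates with a cell density gradient in the top layer, compounds applied from DMSO stocks, clonal growth scored in sparse versus dense areas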
[3] = Exp 13, 4-OH-OPB 1-3 μM, Colchicine 0.01-0.1 μM
[4] = Exp 13, High inhibitor conc. (Colchicine 100 nM), H: high cell density area
[5] = Exp 13, High inhibitor conc. (Colchicine 100 nM), L: low cell density area
[6] = Exp 13, Low inhibitor conc. (4-OH—OPB 1 μM, Colchicine 10 nM), H: high cell density area
[7] = Exp 13, Low inhibitor conc. (4-OH—OPB 1 μM, Colchicine 10 nM), L: low cell density area
[8] = Exp 13, Medium inhibitor conc. (4-OH—OPB 3 μM, Colchicine 33 nM), H: high cell density area
[9] = Exp 13, Medium inhibitor conc. (4-OH—OPB 3 μM, Colchicine 33 nM), L: low cell density area
[10] = preliminary results, Exp 13-18, 21-26, high concentration
[11] = preliminary results, Exp 13-18, 21-26, low concentration
[12] = preliminary results, Exp 13-18, 21-26, medium concentration

COc1cc2c(c(OC)c1OC)-c1ccc(OC)c(=O)cc1[C@@H](NC(C)=O)CC2 [Colchicine, reference compound]
tumour in abdominal wall, findings on section (Ehrlich ascites tumour; at killing, control 2 × 3 mm tumour): Lens sized
ascites with Ehrlich cells, findings on section (Ehrlich ascites tumour; at killing, control 4 ml): 1.5 mL
day 14 status (Ehrlich ascites tumour; day 14 after ip transplantation, mouse 1 killed, mice 2 and 3 marked '?'): Ascites
day 16 status (Ehrlich ascites tumour; day 16, killed because of signs of ascites): Ascites
Rescue of mice from transplanted Ehrlich tumour (Ehrlich ascites tumour; high dose mixed with the transplanted cells before injection): did not provide complete protection against the development of transplantable Ehrlich tumour; also recorded: not rescue the animal either. The conclusion is
weight gain in % (Ehrlich ascites tumour; one mouse each, ip: mouse 1 4-OH—OPB from day 1, mouse 2 Etoposide + 4-OH—OPB from day 1, mouse 3 Colchicine from day 0, control mouse 42.4): 23.8%
Effect on clonal growth at 0.01-0.1 μM ([1]; Exp 15, 32000 S100T1 cells/well): did not inhibit clonal growth
Colony inhibiting activity for dosage within a range that might be therapeutic ([1]; Exp 16, about 40000 S100T1 cells/well): the same activity possibly existed
Significance ([1]; Exp 16 day 14, Colchicine No 1 (lot 60K1932, solved in DMSO 8 days beforehand, stored frozen), 0.1 μM): doubtful
Growth ([1]; Exp 16 day 14, Colchicine No 1 (lot 60K1932, solved in DMSO 8 days beforehand, stored frozen), 0.1 μM in wells): (+
Significance ([1]; Exp 16 day 14, Colchicine No 1 (lot 60K1932, solved in DMSO 8 days beforehand, stored frozen), 1 μM): doubtful
Growth ([1]; Exp 16 day 14, Colchicine No 1 (lot 60K1932, solved in DMSO 8 days beforehand, stored frozen), 1 μM in wells): (+
Growth ([1]; Exp 16 day 14, Colchicine No 2 (lot 60K1932, solved in DMSO the same day), 0.1 μM in wells): (+
Significance ([1]; Exp 16 day 14, Colchicine No 2 (lot 60K1932, solved in DMSO the same day), 0.1 μM, ” = as line above): ” and doubtful
Significance ([1]; Exp 16 day 14, Colchicine No 2 (lot 60K1932, solved in DMSO the same day), 1 μM): possible
Growth ([1]; Exp 16 day 14, Colchicine No 2 (lot 60K1932, solved in DMSO the same day), 1 μM in wells): (+)
Significance ([1]; Exp 16 day 14, Colchicine No 3 (lot 28H1229, solved in DMSO the same day), 0.1 μM): possible
Growth ([1]; Exp 16 day 14, Colchicine No 3 (lot 28H1229, solved in DMSO the same day), 0.1 μM in wells): (+)
Growth ([1]; Exp 16 day 14, Colchicine No 3 (lot 28H1229, solved in DMSO the same day), 0.22 μM in wells): (+)
Significance ([1]; Exp 16 day 14, Colchicine No 3 (lot 28H1229, solved in DMSO the same day), 0.22 μM, ” = as line above): ” and possible
Growth ([1]; Exp 16 day 14, Colchicine No 4 (lot 28H1229, solved in DMSO the same day), 0.46 μM in wells): (+)
Significance ([1]; Exp 16 day 14, Colchicine No 4 (lot 28H1229, solved in DMSO the same day), 0.46 μM, ” = as line above): ” and possible
Significance ([1]; Exp 16 day 14, Colchicine No 4 (lot 28H1229, solved in DMSO the same day), 1 μM): probable
Growth ([1]; Exp 16 day 14, Colchicine No 4 (lot 28H1229, solved in DMSO the same day), 1 μM in wells): (+))
Significance ([1]; Exp 16 day 21, Colchicine No 1 (lot 60K1932, solved in DMSO 8 days beforehand, stored frozen), 0.1 μM): no
Growth ([1]; Exp 16 day 21, Colchicine No 1 (lot 60K1932, solved in DMSO 8 days beforehand, stored frozen), 0.1 μM in wells): +
Significance ([1]; Exp 16 day 21, Colchicine No 1 (lot 60K1932, solved in DMSO 8 days beforehand, stored frozen), 1 μM): doubtful
Growth ([1]; Exp 16 day 21, Colchicine No 1 (lot 60K1932, solved in DMSO 8 days beforehand, stored frozen), 1 μM in wells): (+
Significance ([1]; Exp 16 day 21, Colchicine No 2 (lot 60K1932, solved in DMSO the same day), 0.1 μM): doubtful
Growth ([1]; Exp 16 day 21, Colchicine No 2 (lot 60K1932, solved in DMSO the same day), 0.1 μM in wells): (+
Significance ([1]; Exp 16 day 21, Colchicine No 2 (lot 60K1932, solved in DMSO the same day), 1 μM): possible
Growth ([1]; Exp 16 day 21, Colchicine No 2 (lot 60K1932, solved in DMSO the same day), 1 μM in wells): (+)
Growth ([1]; Exp 16 day 21, Colchicine No 3 (lot 28H1229, solved in DMSO the same day), 0.1 μM in wells): (+
Significance ([1]; Exp 16 day 21, Colchicine No 3 (lot 28H1229, solved in DMSO the same day), 0.1 μM, ” = as line above): ” and doubtful
Significance ([1]; Exp 16 day 21, Colchicine No 3 (lot 28H1229, solved in DMSO the same day), 0.22 μM): doubtful
Growth ([1]; Exp 16 day 21, Colchicine No 3 (lot 28H1229, solved in DMSO the same day), 0.22 μM in wells): (+
Significance ([1]; Exp 16 day 21, Colchicine No 4 (lot 28H1229, solved in DMSO the same day), 0.46 μM): possible
Growth ([1]; Exp 16 day 21, Colchicine No 4 (lot 28H1229, solved in DMSO the same day), 0.46 μM in wells): (+)
Growth ([1]; Exp 16 day 21, Colchicine No 4 (lot 28H1229, solved in DMSO the same day), 1 μM in wells): (+
Significance ([1]; Exp 16 day 21, Colchicine No 4 (lot 28H1229, solved in DMSO the same day), 1 μM, ” = as line above): ” and doubtful
Growth in locations with high cell density [2, 3]: did not inhibit clonal growth
Growth in locations with low cell density (sparsely seeded cells) [2, 3]: full inhibition on clonal growth of sparsely seeded cells; also recorded: inhibited growth in locations with low cell density even when using low doses
Growth, summary of results after 3 days incubation [2, 4]: +++
Growth, summary of results after 4 days incubation [2, 4]: +++
Growth, summary of results after 3 days incubation [2, 5]: −
Growth, summary of results after 4 days incubation [2, 5]: −
Growth, summary of results after 3 days incubation [2, 6]: +++
Growth, summary of results after 4 days incubation [2, 6]: +++
Growth, summary of results after 3 days incubation [2, 7]: −
Growth, summary of results after 4 days incubation [2, 7]: +−
Growth, summary of results after 3 days incubation [2, 8]: +++
Growth, summary of results after 4 days incubation [2, 8]: +++
Growth, summary of results after 3 days incubation [2, 9]: −
Growth, summary of results after 4 days incubation [2, 9]: −
Effect on growth in high- and low-density areas ([2]; Exp 17, 144000 S100T1 cells/well): did not inhibit the high-density areas significantly; also recorded: no complete clonal inhibition could be observed
Clonal growth, results read on the day 14 ([2]; Exp 17, a: close to densely seeded cell areas, High: Colchicine 1, Podophyllotoxin 3, Etoposide 200, 4-OH—OPB 6.7 μM in wells, DMSO 29.2 μl): (+)
Clonal growth, results read on the day 14 ([2]; Exp 17, a: close to densely seeded cell areas, Low: Colchicine 0.1, Podophyllotoxin 0.3, Etoposide 20, 4-OH—OPB 0.67 μM in wells, DMSO 1.16 μl): ++
Clonal growth, results read on the day 14 ([2]; Exp 17, a: close to densely seeded cell areas, Medium: Colchicine 0.3, Podophyllotoxin 0.9, Etoposide 60, 4-OH—OPB 2 μM in wells, DMSO 6.8 μl): ++
Clonal growth, results read on the day 14 ([2]; Exp 17, b: sparsely seeded areas in the same agar culture, High: Colchicine 1, Podophyllotoxin 3, Etoposide 200, 4-OH—OPB 6.7 μM in wells, DMSO 29.2 μl): (+)
Clonal growth, results read on the day 14 ([2]; Exp 17, b: sparsely seeded areas in the same agar culture, Low: Colchicine 0.1, Podophyllotoxin 0.3, Etoposide 20, 4-OH—OPB 0.67 μM in wells, DMSO 1.16 μl): ++
Clonal growth, results read on the day 14 ([2]; Exp 17, b: sparsely seeded areas in the same agar culture, Medium: Colchicine 0.3, Podophyllotoxin 0.9, Etoposide 60, 4-OH—OPB 2 μM in wells, DMSO 6.8 μl): ++
Clones in sparsely seeded locations of the agar ([2]; Exp 17, compared with 4-OH-OPB): allow the growth of a few small clones in sparsely seeded locations of the agar; also recorded: to allow the growth of a few small clones in sparsely
Significance ([2]; a: close to densely seeded cell areas, High: Colchicine 1, Podophyllotoxin 3, Etoposide 200, 4-OH—OPB 6.7 μM in wells, DMSO 29.2 μl): Possible
Significance ([2]; a: close to densely seeded cell areas, Low: Colchicine 0.1, Podophyllotoxin 0.3, Etoposide 20, 4-OH—OPB 0.67 μM in wells, DMSO 1.16 μl): No
Significance ([2]; a: close to densely seeded cell areas, Medium: Colchicine 0.3, Podophyllotoxin 0.9, Etoposide 60, 4-OH—OPB 2 μM in wells, DMSO 6.8 μl): No
Significance ([2]; b: sparsely seeded areas, High: Colchicine 1, Podophyllotoxin 3, Etoposide 200, 4-OH—OPB 6.7 μM in wells, DMSO 29.2 μl): Possible
Significance ([2]; b: sparsely seeded areas, Low: Colchicine 0.1, Podophyllotoxin 0.3, Etoposide 20, 4-OH—OPB 0.67 μM in wells, DMSO 1.16 μl): No
Significance ([2]; b: sparsely seeded areas, Medium: Colchicine 0.3, Podophyllotoxin 0.9, Etoposide 60, 4-OH—OPB 2 μM in wells, DMSO 6.8 μl): No
Clonal growth, H high density area of cell gradient, High [2, 10]: +++
Clonal growth, L low density area of cell gradient, High [2, 10]: −
Clonal growth, H high density area of cell gradient, Low [2, 11]: +++
Clonal growth, L low density area of cell gradient, Low [2, 11]: −
Clonal growth, H high density area of cell gradient, Medium [2, 12]: +++
Clonal growth, L low density area of cell gradient, Medium [2, 12]: −
Effect on cell cloning in soft agar ([2]; preliminary results, in words): Growth in high density areas; also recorded: No growth in low density areas
